SMILES strings stand for the structures.

Here are results for five compounds from US11771123B2, “Methods for treating biomass to produce oligosaccharides and related compositions” (Cambridge Glycoscience Ltd, priority 2019, dated 2023).

Series [1] can be described thus: Glaze formation: dried on glass plate and scored with a knife. In kind it is physicochemical. Conditions: cellobiose alone, 10-320 mM, dried at 37° C. The method, then: 100 μl of 10-320 mM (10, 20, 40, 80, 160, and 320 mM) cellobiose±1% w/v birchwood xylan was pipetted onto a glass plate. • 2. Samples were dried at 37° C. • 3. Samples were scored with a knife to test whether or not the ingredient settled into a solid glaze. […] With a cellobiose concentration of 160 mM or higher (5.5% w/v, or 550% w/w as compared with xylan) the morphology of the glaze reverted to that without xylan present.

Series [2] is described as follows: Flow characteristics: timed flow from a vertically stood syringe under gravity. In kind it is physicochemical. Conditions: syringe filled with 20 mL test liquid, room temperature. How it is done: The glucose solutions were made by weighing 6, 12, 18, and 24 g D-glucose respectively and making up with 90° C. water to 30 mL. The flow characteristics were measured by timing the flow rate of 5 mL, and where suitable, 20 mL of the liquids from a vertically stood syringe (BD Plastipak 300613) filled with 20 mL of test liquid under gravity at room temperature.
Sample were analyzed for flow characteristics as described in Example 9.

As for `O=C[C@H](O)[C@@H](O)[C@H](O[C@@H]1O[C@H](CO)[C@@H](O)[C@H](O)[C@H]1O)[C@H](O)CO` [cellobiose], the Glaze formation result in series [1] is “no firm glaze was formed”.
Regarding `O=C[C@H](O)[C@@H](O)[C@H](O)[C@H](O)CO` [20% w/v glucose, D-glucose], in series [2], the “Time for 5 mL flow” value is 2.3 s and the “Time for 20 mL flow” value is 13.5 s.
For `O=C[C@H](O)[C@@H](O)[C@H](O)[C@H](O)CO` [80% w/v glucose, D-glucose], in that order: 5 s and 38 s.
`O=C[C@H](O)[C@@H](O)[C@H](O)[C@H](O)CO` [40% w/v glucose, D-glucose]: in series [2], the “Time for 5 mL flow” value was 2.5 s and the “Time for 20 mL flow” value is 15 s.
For `O=C[C@H](O)[C@@H](O)[C@H](O)[C@H](O)CO` [60% w/v glucose, D-glucose], in that order: 3 s and 20 s.
